Results on seven molecules are retold here after patent US20260083865A1, “PROSTATE SPECIFIC MEMBRANE ANTIGEN (PSMA) LIGANDS AND USE THEREOF” (priority 2022, published 2026).

In assay [1] the target is T1, PSMA-expressing C4-2 cells (Homo sapiens, UniProt Q04609).
T1 construct: PSMA-expressing C4-2 cells (ATCC, Cat. No. CRL-3314) were cultured in RPMI-1640; host or cells: C4-2 cells
The assay is described as follows: FACS binding assay (competition with 50 nM PSM-0183). As to conditions: read-out: pIC50 [C4-2] CAT (converted). The procedure, abridged: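 Competition format: fluorescent tracer PSM-0183 (50 nM) displaced from PSMA on C4-2 cells by a test compound titration over 1 h at 4 °C. Bound tracer was quantified as flow-cytometric AF488 median fluorescence after washing. Four-parameter logistic fits of MFI data gave IC50 and pIC50.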
On the technique in general: Flow cytometry measures light scatter and fluorescence of single cells or particles in a stream.

Assay [2] addresses T2, Fc-fusion protein of human PSMA (hPSMA-Fc) (Homo sapiens, UniProt Q04609).
T2 construct: purchased Acro Biosystems PSA-H5264
As to the kind of experiment: Surface plasmon resonance assay (Biacore T200, single cycle kinetic). Type of assay: binding. Particulars: read-out: pKD CAT (converted). The procedure, abridged: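 KD, expressed as pKD, came from 1:1 Langmuir fits of reference- and buffer-blank-subtracted SPR data. The runs were single-cycle kinetics at 25° C in HBST/0.1% DMSO over human PSMA-Fc, captured to ~1000 RU on a peptide-coated CM5 surface and regenerated with 10 mM glycine pH 1.5.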
A general note: In SPR one partner is held on a chip, and binding of the other changes the refractive index at the surface.

The mark [3] stands for this setting: pIC50 category of FACS binding, C4-2 cells.
[4] abbreviates: pKD category for PSMA SPR activity assay, hPSMA-Fc, 25° C.
The mark [5] stands for this setting: FACS binding, C4-2 cells, competition with 50 nM PSM-0183, category.
The mark [6] stands for this setting: SPR, hPSMA-Fc, single cycle kinetic, 25° C., category.

Like-named read-outs stand apart in the source and are kept apart here. Numbered stars: 1 amine (or outer) side, 2 acyl side, 3 side chain; on linkers, the order of the positions; unused ones are H or OH. Bridge positions count the residues as written; N and C are the ends. Square brackets hold non-standard residues; d marks the D form. Side chains are listed from the residue outwards. Peptide text beside a SMILES is read from it. * marks the point of attachment. ξ: configuration not given here. DOTA = O=C(O)CN1CCN(CC(=O)O)CCN(CC(=O)*)CCN(CC(=O)O)CC1; Phe(4-CH2COOH) = N[C@@H](Cc1ccc(CC(=O)O)cc1)C(=O)O; Trp(6-Cl) = N[C@@H](Cc1c[nH]c2cc(Cl)ccc12)C(=O)O; Tyr(3-I) = N[C@@H](Cc1ccc(O)c(I)c1)C(=O)O; Phe(3-Cl) = N[C@@H](Cc1cccc(Cl)c1)C(=O)O; Arg(Me) = CNC(=N)NCCC[C@H](N)C(=O)O; X4 = O=C(CN1CCC(N[*:1])CC1)[*:2]; X1 = O=C(CC1CCN([*:1])CC1)[*:2]; Cit = NC(=O)NCCC[C@H](N)C(=O)O; Lys(Me) = CNCCCC[C@H](N)C(=O)O; Tle = CC(C)(C)[C@H](N)C(=O)O; ξD = NC(CC(=O)O)C(=O)O; AEEA = NCCOCCOCC(=O)O; Aib = CC(C)(N)C(=O)O; X8 = O=C(CC1CCNCC1)*

T2 sequence (Q04609 44-750 limits assumed): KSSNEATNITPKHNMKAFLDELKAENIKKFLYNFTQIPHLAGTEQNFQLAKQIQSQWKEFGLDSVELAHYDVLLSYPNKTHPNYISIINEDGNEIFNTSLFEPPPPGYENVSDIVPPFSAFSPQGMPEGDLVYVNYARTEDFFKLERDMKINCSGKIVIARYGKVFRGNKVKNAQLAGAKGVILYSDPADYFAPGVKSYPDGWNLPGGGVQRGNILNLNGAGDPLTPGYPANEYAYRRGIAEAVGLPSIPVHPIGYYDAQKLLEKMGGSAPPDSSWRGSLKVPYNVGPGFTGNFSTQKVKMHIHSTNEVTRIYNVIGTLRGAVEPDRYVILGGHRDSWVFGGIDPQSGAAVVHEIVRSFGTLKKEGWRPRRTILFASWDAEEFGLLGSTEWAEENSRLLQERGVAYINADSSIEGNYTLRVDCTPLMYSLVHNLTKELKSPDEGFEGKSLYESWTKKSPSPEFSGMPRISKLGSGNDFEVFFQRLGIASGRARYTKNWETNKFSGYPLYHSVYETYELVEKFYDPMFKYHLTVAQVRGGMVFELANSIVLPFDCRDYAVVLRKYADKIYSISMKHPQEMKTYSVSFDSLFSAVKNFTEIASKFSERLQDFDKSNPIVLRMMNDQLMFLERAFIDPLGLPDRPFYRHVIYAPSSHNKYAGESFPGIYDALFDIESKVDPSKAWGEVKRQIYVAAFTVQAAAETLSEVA
T1 sequence (Q04609 whole entry): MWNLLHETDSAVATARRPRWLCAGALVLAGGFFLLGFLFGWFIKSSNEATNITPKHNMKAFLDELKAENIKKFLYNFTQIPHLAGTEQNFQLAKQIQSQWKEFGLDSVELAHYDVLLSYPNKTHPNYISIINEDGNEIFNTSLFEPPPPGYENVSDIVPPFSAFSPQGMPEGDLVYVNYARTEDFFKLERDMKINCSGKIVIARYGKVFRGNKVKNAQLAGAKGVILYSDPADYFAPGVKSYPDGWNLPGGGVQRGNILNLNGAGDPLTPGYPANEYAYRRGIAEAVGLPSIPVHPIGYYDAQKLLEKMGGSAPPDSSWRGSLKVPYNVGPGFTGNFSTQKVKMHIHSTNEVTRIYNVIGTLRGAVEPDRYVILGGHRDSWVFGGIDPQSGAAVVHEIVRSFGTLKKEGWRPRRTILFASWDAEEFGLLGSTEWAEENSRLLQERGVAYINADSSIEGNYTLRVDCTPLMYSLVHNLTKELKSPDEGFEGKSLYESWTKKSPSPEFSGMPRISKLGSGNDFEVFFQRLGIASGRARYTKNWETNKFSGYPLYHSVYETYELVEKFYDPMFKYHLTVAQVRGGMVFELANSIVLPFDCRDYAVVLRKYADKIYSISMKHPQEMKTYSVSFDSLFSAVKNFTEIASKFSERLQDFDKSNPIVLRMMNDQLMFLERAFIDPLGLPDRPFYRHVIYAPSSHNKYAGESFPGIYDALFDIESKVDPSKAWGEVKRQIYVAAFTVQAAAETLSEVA

Turning to `C[C@@H](O)[C@H](NC(=O)[C@@H](NC(=O)[C@@H]1CSSC[C@H](NC(=O)[C@H](Cc2ccc(CC(=O)O)cc2)NC(=O)C(C)(C)NC(=O)[C@@H](NC(=O)CC2CCN(C(=O)CN3CCN(CC(=O)O)CCN(CC(=O)O)CCN(CC(=O)O)CC3)CC2)[C@@H](C)O)C(=O)N[C@@H](CCCCN)C(=O)N[C@@H](CCCNC(=N)N)C(=O)NC(C)(C)C(=O)N[C@@H](CC(N)=O)C(=O)N1)C(C)(C)C)C(N)=O` [PSM-0566, DOTA-Cmp-Thr-Aib-Fac-[Cys-Lys-Arg-Aib-Asn-Cys]-Tle-Thr-NH2] ({DOTA}-[X1]T[Aib][Phe(4-CH2COOH)]CKR[Aib]NC[Tle]T-NH2; disulfide 5-10), in assay [1] (FACS binding, C4-2 cells, category), the IC50 was above 3.16 µM. The Kd in assay [2] (PSMA SPR assay, category) was above 0.501 µM.
As to `CSCC[C@H](N)C(=O)N[C@H](C(=O)N[C@@H](C)C(=O)N[C@@H](Cc1ccccc1)C(=O)N[C@H]1CSSC[C@@H](C(=O)N[C@@H](CC(C)C)C(=O)N[C@H](C(=O)NC(CC(=O)O)C(=O)NCC(=O)N[C@@H](CO)C(N)=O)[C@@H](C)O)NC(=O)[C@H](CC(N)=O)NC(=O)[C@H](C)NC(=O)[C@H](CCCNC(=N)N)NC(=O)[C@H](CCCCN)NC1=O)[C@@H](C)O` (stereo partly drawn) [PSM-0498, H-Met-Thr-Ala-Phe-[Cys-Lys-Arg-Ala-Asn-Cys]-Lou-Thr-Asp-Gly-Ser-NH2] (H-MTAFCKRANCLT[ξD]GS-NH2; disulfide 5-10), in assay [1] (setting [3]), the IC50 was below 0.2 µM. In assay [2] (setting [4]), the Kd is below 0.0126 µM.
With `CC(=O)N[C@H](C(=O)NC(C)(C)C(=O)N[C@@H](Cc1cccc(Cl)c1)C(=O)N[C@H]1CSSC[C@@H](C(=O)N[C@H](C(=O)N[C@H](C(N)=O)[C@@H](C)O)C(C)(C)C)NC(=O)[C@H](CC(N)=O)NC(=O)[C@H](CCCCNC(=O)COCCOCCNC(=O)CN2CCN(CC(=O)O)CCN(CC(=O)O)CCN(CC(=O)O)CC2)NC(=O)[C@H](CCCNC(N)=O)NC(=O)[C@H](CCCCN)NC1=O)[C@@H](C)O` [PSM-0284, Ac-Thr-Aib-Mcf-[Cys-Lys-Cit-Lys(DOTA-020c)-Asn-Cys]-Tle-Thr-NH2] (Ac-T[Aib][Phe(3-Cl)]CK[Cit]K([AEEA-DOTA])NC[Tle]T-NH2; disulfide 4-9), the IC50 in assay [1] (FACS binding, PSMA-expressing C4-2 cells, pIC50 category) was below 0.2 µM. Besides, the Kd in assay [2] (PSMA SPR assay, hPSMA-Fc, 25° C., pKD category) was 0.0126 to 0.126 µM.
With `CNCCCC[C@@H]1NC(=O)[C@@H](NC(=O)[C@H](Cc2c[nH]c3cc(Cl)ccc23)NC(=O)C(C)(C)NC(=O)[C@@H](NC(=O)CC2CCN(C(=O)CN3CCN(CC(=O)O)CCN(CC(=O)O)CCN(CC(=O)O)CC3)CC2)[C@@H](C)O)CSSC[C@@H](C(=O)N[C@H](C(N)=O)C(C)(C)C)NC(=O)[C@H](CC(N)=O)NC(=O)C(C)(C)NC(=O)[C@H](CCCNC(=N)NC)NC1=O` [PSM-0390, DOTA-Cmp-Tle-Aib-6Clw-[Cys-Lys(Me)-Arg(Me)-Aib-Asn-Cys]-Tle-NH2] ({DOTA}-[X1]T[Aib][Trp(6-Cl)]C[Lys(Me)][Arg(Me)][Aib]NC[Tle]-NH2; disulfide 5-10), the IC50 in assay [1] (setting [3]) was below 0.2 µM. In assay [2] (setting [4]), the Kd is below 0.0126 µM.
Turning to `C[C@@H](O)[C@H](NC(=O)[C@@H](NC(=O)[C@@H]1CSSC[C@H](NC(=O)[C@H](Cc2ccccc2)NC(=O)C(C)(C)NC(=O)CN2CCC(NC(=O)CN3CCN(CC(=O)O)CCN(CC(=O)O)CCN(CC(=O)O)CC3)CC2)C(=O)N[C@@H](CCCCN)C(=O)N[C@@H](CCCNC(=N)N)C(=O)NC(C)(C)C(=O)N[C@@H](CC(N)=O)C(=O)N1)C(C)(C)C)C(N)=O` [PSM-0261, DOTA-APAc-Aib-Phe-[Cys-Lys-Arg-Aib-Asn-Cys]-Tle-Thr-NH2] ({DOTA}-[X4][Aib]FCKR[Aib]NC[Tle]T-NH2; disulfide 4-9), the IC50 in assay [1] (setting [5]) is below 0.2 µM. For the same molecule, the Kd in assay [2] (setting [6]) was 0.0126 to 0.126 µM.
The corresponding values for `CNCCCC[C@@H]1NC(=O)[C@@H](NC(=O)[C@H](Cc2ccc(O)c(I)c2)NC(=O)C(C)(C)NC(=O)[C@@H](NC(=O)CC2CCNCC2)[C@@H](C)O)CSSC[C@@H](C(=O)N[C@H](C(=O)N[C@H](C(N)=O)[C@@H](C)O)C(C)(C)C)NC(=O)[C@H](CC(N)=O)NC(=O)C(C)(C)NC(=O)[C@H](CCCNC(=N)NC)NC1=O` [PSM-0192, H-Cmp-Thr-Aib-Miy-[Cys-Lys(Me)-Arg(Me)-Aib-Asn-Cys]-Tle-Thr-NH2] (X8-T[Aib][Tyr(3-I)]C[Lys(Me)][Arg(Me)][Aib]NC[Tle]T-NH2; disulfide 4-9) are above 3.16 µM and above 0.501 µM.
Turning to `C[C@@H](O)[C@H](NC(=O)[C@@H](NC(=O)[C@@H]1CSSC[C@H](NC(=O)[C@H](Cc2ccccc2)NC(=O)C(C)(C)NC(=O)CN2CCN(CC(=O)O)CCN(CC(=O)O)CCN(CC(=O)O)CC2)C(=O)N[C@@H](CCCCN)C(=O)N[C@@H](CCCNC(=N)N)C(=O)NC(C)(C)C(=O)N[C@@H](CC(N)=O)C(=O)N1)C(C)(C)C)C(N)=O` [PSM-0447, DOTA-Aib-Phe-[Cys-Lys-Arg-Aib-Asn-Cys]-Tle-Thr-NH2] ({DOTA}-[Aib]FCKR[Aib]NC[Tle]T-NH2; disulfide 3-8), in assay [1] (setting [3]), the IC50 is above 3.16 µM. Further, in assay [2] (setting [4]), the Kd is above 0.501 µM.
